Reference: patent US12503448B2, “Antibacterial and antiparasitic quinoxaline-2,3-diamine derivatives” (University College Cardiff Consultants Limited, priority 2019, dated 2025)
Converted amounts (≈) assume the structure as drawn. Like-named read-outs stand apart in the source and are kept apart here.

Columns and labels:
[1] = tested on: F. hepatica newly excysted juveniles (NEJs); assay: Newly excysted juveniles (NEJs) drug screen; assay type: cell-based, Fasciola hepatica; design: scale not given here; conditions: 10 μM, 72 h; higher score indicates lower worm activity
Summary of the method: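 Italian-strain F. hepatica NEJs, 25 per well, exposed to compound at 10 μM (0.1% DMSO) for 72 h at 37 °C, 5% CO2. Each parasite scored for phenotype and motility; averaged over two replicates, higher score meaning lower worm activity.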

E. coli ATCC 25922 = assay: In vitro antibacterial activity; assay type: cell-based; conditions: Escherichia coli, ATCC25922
[2] = tested on: M. smegmatis mc^2 15 ATCC 700084; assay: In vitro antibacterial activity; assay type: cell-based, Mycobacterium smegmatis; conditions: Mycolicibacterium smegmatis, ATCC700084
MRSA USA 300 = assay: In vitro antibacterial activity; assay type: cell-based; conditions: Staphylococcus aureus
MRSA EM RSA = assay: In vitro antibacterial activity; assay type: cell-based; conditions: Staphylococcus aureus
Source text: (§1) In vitro Determination of Antibacterial Activity
(§2) Scientific Reports 8 (1), 2018. Bacterial strains of Enterococcus faecalis—ATCC 29212, NCTC 12201, ATCC 51299; Streptococcus pneumoniae—ATCC 49619, 18778, 21394, 21395; Haemophilus influenza—ATCC 49766, 18391, 17428; Staphylococcus aureus—NCTC 12493, ATCC BAA-077, ATCC 700698, 11051; used for testing the compounds, as previously described in “Clinical laboratory testing and in vitro diagnostics test systems—Susceptibility testing of infectious agents and evaluation of performance of antimicrobial susceptibility devices—Part 1: Reference methods for testing the in vitro activity of antimicrobial agentes against bacteria involved in infectious diseases, ISO/FDIS 20776-1:2006(E). All the procedures were carried out in a biosafety containment level 2.

[3] = tested on: Pseudomonas aeruginosa ATCC 27853; assay: In vitro antibacterial activity; assay type: cell-based; conditions: ATCC27853
S. epidermidis NTCT11077 = assay: In vitro antibacterial activity; assay type: cell-based; conditions: Staphylococcus epidermidis
[4] = tested on: Enterococcus faecalis ATCC 29212; assay: Antibacterial MIC (ISO 20776-1); assay type: cell-based; conditions: ATCC29212
Source text: as §1, §2

[5] = tested on: Enterococcus faecalis ATCC 51299; assay: Antibacterial MIC (ISO 20776-1); assay type: cell-based; conditions: ATCC51299; Enterococcus faecalis ATCC 51299, Vancomycin resistance, vanB
Source text: as §1, §2

[6] = tested on: Enterococcus faecalis NCTC 12201; assay: Antibacterial MIC (ISO 20776-1); assay type: cell-based; conditions: NCTC12201; Enterococcus faecalis NCTC 12201, Vancomycin resistance, vanA
Source text: as §1, §2

[7] = tested on: Haemophilus influenzae 17428; assay: Antibacterial MIC (ISO 20776-1); assay type: cell-based; conditions: Haemophilus influenzae 17428, Ampicillin resistance, PBP
Source text: as §1, §2

[8] = tested on: Haemophilus influenzae 18391; assay: Antibacterial MIC (ISO 20776-1); assay type: cell-based; conditions: Haemophilus influenzae 18391, AMP/COA resistance, PBP/β-lactamase
Source text: as §1, §2

[9] = tested on: Haemophilus influenzae ATCC 49766; assay: Antibacterial MIC (ISO 20776-1); assay type: cell-based; conditions: ATCC49766
Source text: as §1, §2

[10] = tested on: Staphylococcus aureus 11051; assay: Antibacterial MIC (ISO 20776-1); assay type: cell-based
Source text: as §1, §2

[11] = tested on: Staphylococcus aureus ATCC 700698; assay: Antibacterial MIC (ISO 20776-1); assay type: cell-based; conditions: ATCC700698
Source text: as §1, §2

[12] = tested on: Staphylococcus aureus ATCC BAA-977; assay: Antibacterial MIC (ISO 20776-1); assay type: cell-based; conditions: ATCCBAA977
Source text: as §1, §2

[13] = tested on: Staphylococcus aureus NCTC 12493; assay: Antibacterial MIC (ISO 20776-1); assay type: cell-based; conditions: NCTC12493
Source text: as §1, §2

[14] = tested on: Streptococcus pneumoniae 18778; assay: Antibacterial MIC (ISO 20776-1); assay type: cell-based
Source text: as §1, §2

[15] = tested on: Streptococcus pneumoniae 21394; assay: Antibacterial MIC (ISO 20776-1); assay type: cell-based
Source text: as §1, §2

[16] = tested on: Streptococcus pneumoniae 21395; assay: Antibacterial MIC (ISO 20776-1); assay type: cell-based
Source text: as §1, §2

[17] = tested on: Streptococcus pneumoniae ATCC 49619; assay: Antibacterial MIC (ISO 20776-1); assay type: cell-based; conditions: ATCC49619
Source text: as §1, §2

[18] = Mouse pharmacokinetics, oral cassette dosing
Description: Non-compartmental mouse pharmacokinetics (Male C57/BL6 Mouse, Fasted; 3 mice per group) were determined after oral administration of a nominal dose of 2.5 mg/kg of these formulations in cassettes (5 compounds/group) according to the protocols employed by WuXi (https://www.wuxiapptec.com; the CRO that conducted these studies).

[19] = Streptococcus pneumoniae, 18778
[20] = Streptococcus pneumoniae, 21394
[21] = Streptococcus pneumoniae, 21395
[22] = Staphylococcus aureus ATCC 700698, Vancomycin resistance, hVISA, read-out: MIC
[23] = male, C57/BL6, mouse, plasma, po, 2.5 mg/kg
[24] = E. coli ATCC 25922, read-out: MIC90
[25] = M. smegmatis mc^2 15 ATCC 700084, read-out: MIC90
[26] = Pseudomonas aeruginosa ATCC 27853, read-out: MIC90
[27] = S. epidermidis NTCT11077, read-out: MIC90
[28] = Enterococcus faecalis ATCC 29212, read-out: MIC
[29] = Staphylococcus aureus 11051, Tetracycline resistance, read-out: MIC
[30] = Staphylococcus aureus ATCC BAA-977, ERY/CLIND resistance, MLSB, read-out: MIC
[31] = Staphylococcus aureus NCTC 12493, Flucloxacillin resistance, mecA, read-out: MIC
[32] = Streptococcus pneumoniae 18778, ERY, TET resistance, read-out: MIC
[33] = Streptococcus pneumoniae 21394, Penicillin resistance, PBP, read-out: MIC
[34] = Streptococcus pneumoniae 21395, ERY, CLIND resistance, MLSB, read-out: MIC
[35] = Streptococcus pneumoniae ATCC 49619, read-out: MIC
[36] = oral, nominal dose 2.5 mg/kg, cassette

| Compound | Motility (M) Mean score [1] | Phenotype (P) Mean score [1] | MIC90 (E. coli ATCC 25922) [mg/L] | MIC90 [2] [mg/L] | MIC90 (MRSA USA 300) [mg/L] | MIC90 (MRSA EM RSA) [mg/L] | MIC90 ([3]; Pseudomonas aeruginosa) [mg/L] | MIC90 (S. epidermidis NTCT11077; NTCT11077) [mg/L] | MIC ([4]; Enterococcus faecalis) [mg/L] | MIC [5] [mg/L] | MIC [6] [mg/L] | MIC [7] [mg/L] | MIC [8] [mg/L] | MIC [9] [mg/L] | MIC ([10]; Staphylococcus aureus, 11051) [mg/L] | MIC [11, 22] [mg/L] | AUC(0-t) [18, 23] [µg·h/mL] | Cmax [18, 23] [µg/mL] | MRT last [18, 23] [h] | Tmax [18, 23] [h] | other results |
| --- | --- | --- | --- | --- | --- | --- | --- | --- | --- | --- | --- | --- | --- | --- | --- | --- | --- | --- | --- | --- | --- |
| O=[N+]([O-])c1ccc2nc(Nc3cccc(Cl)c3)c(Nc3cccc(Cl)c3)nc2c1 [Compound 5, N^2, N^3-bis(3-chlorophenyl)-6-nitroquinoxaline-2,3-diamine] | 4.20 | 4.70 | > 125 | > 125 | 3.91 (≈ 9.17 µM) | 3.91 (≈ 9.17 µM) | > 125 | < 62.5 | 0.25 (≈ 0.586 µM) | 0.25 (≈ 0.586 µM) | 0.06 (≈ 0.141 µM) | 8 (≈ 18.8 µM) | 8 (≈ 18.8 µM) | 4 (≈ 9.38 µM) | 0.125 (≈ 0.293 µM) | – | – | – | – | – | MIC ([11]; Staphylococcus aureus): 0.125 mg/L (≈ 0.293 µM); MIC ([12]; Staphylococcus aureus): 0.125 mg/L (≈ 0.293 µM); MIC ([13]; Staphylococcus aureus): 0.06 mg/L (≈ 0.141 µM); MIC [14, 19]: 8 mg/L (≈ 18.8 µM); MIC [15, 20]: 4 mg/L (≈ 9.38 µM); MIC [16, 21]: 4 mg/L (≈ 9.38 µM); MIC ([17]; Streptococcus pneumoniae): 4 mg/L (≈ 9.38 µM) |
| O=[N+]([O-])c1ccc2nc(Nc3ccc(F)c(C(F)(F)F)c3)c(Nc3ccc(F)c(C(F)(F)F)c3)nc2c1 [Compound 7, N^2, N^3-bis(4-fluoro-3-(trifluoromethyl)phenyl)-6-nitroquinoxaline-2,3-diamine] | 4.56 | 5.00 | 62.5 (≈ 118 µM) | 62.5 (≈ 118 µM) | < 3.91 | 7.81 (≈ 14.8 µM) | > 125 | < 62.5 | 1 (≈ 1.89 µM) | 0.5 (≈ 0.945 µM) | 0.5 (≈ 0.945 µM) | > 64 | > 64 | > 64 | 0.5 (≈ 0.945 µM) | 0.5 (≈ 0.945 µM) | 0.0896 | 0.0213 | 4.75 | 4 | MIC ([12]; Staphylococcus aureus): 0.5 mg/L (≈ 0.945 µM); MIC ([13]; Staphylococcus aureus): 0.5 mg/L (≈ 0.945 µM); MIC [14, 19]: 32 mg/L (≈ 60.5 µM); MIC [15, 20]: 32 mg/L (≈ 60.5 µM); MIC [16, 21]: 8 mg/L (≈ 15.1 µM); MIC ([17]; Streptococcus pneumoniae): 8 mg/L (≈ 15.1 µM) |
| O=[N+]([O-])c1ccc2nc(Nc3ccc(C(F)(F)F)cc3)c(Nc3ccc(C(F)(F)F)cc3)nc2c1 [Compound 11, 6-nitro-N^2, N^3-bis(4-(trifluoromethyl)phenyl)quinoxaline-2,3-diamine] | 4.17 | 4.28 | – | – | < 3.91 | 3.91 (≈ 7.93 µM) | – | – | – | 0.25 (≈ 0.507 µM) | 0.06 (≈ 0.122 µM) | 16 (≈ 32.4 µM) | 16 (≈ 32.4 µM) | 16 (≈ 32.4 µM) | – | 0.125 (≈ 0.253 µM) | 0.419 | 0.0688 | 6.5 | 4 | MIC90 (E. coli ATCC 25922; [24]): > 125 mg/L; MIC90 [2, 25]: 31.2 mg/L (≈ 63.3 µM); MIC90 [3, 26]: > 125 mg/L; MIC90 (S. epidermidis NTCT11077; [27]): < 62.5 mg/L; MIC [4, 28]: 0.06 mg/L (≈ 0.122 µM); MIC [10, 29]: 0.125 mg/L (≈ 0.253 µM); MIC [12, 30]: 0.125 mg/L (≈ 0.253 µM); MIC [13, 31]: 0.125 mg/L (≈ 0.253 µM); MIC [14, 32]: 4 mg/L (≈ 8.11 µM); MIC [15, 33]: 4 mg/L (≈ 8.11 µM); MIC [16, 34]: 2 mg/L (≈ 4.05 µM); MIC [17, 35]: 2 mg/L (≈ 4.05 µM); half-life ([18]; male, C57/BL6, mouse, in vivo, po, 2.5 mg/kg): 3.74 h; AUC(0-inf) [18, 23]: 0.445 µg·h/mL; MRT inf [18, 23]: 7.84 h; AUCExtra [18, 36]: 1.82%; AUMCExtra [18, 36]: 6.77% |
| COc1ccc(Nc2nc3ccc([N+](=O)[O-])cc3nc2Nc2ccc(OC)c(C(F)(F)F)c2)cc1C(F)(F)F [Compound 12, N^2, N^3-bis(4-methoxy-3-(tritluoromethyl)phenyl)-6-nitroquinoxaline-2,3-diamine] | 4.45 | 4.70 | – | – | 15.6 (≈ 28.2 µM) | 31.2 (≈ 56.5 µM) | – | – | – | 1 (≈ 1.81 µM) | 0.5 (≈ 0.903 µM) | > 128 | 64 (≈ 116 µM) | 64 (≈ 116 µM) | – | 1 (≈ 1.81 µM) | 0.0778 | 0.0201 | 4.76 | 4 | MIC90 (E. coli ATCC 25922; [24]): > 125 mg/L; MIC90 [2, 25]: > 125 mg/L; MIC90 [3, 26]: > 125 mg/L; MIC90 (S. epidermidis NTCT11077; [27]): < 62.5 mg/L; MIC [4, 28]: 0.5 mg/L (≈ 0.903 µM); MIC [10, 29]: 2 mg/L (≈ 3.61 µM); MIC [12, 30]: 1 mg/L (≈ 1.81 µM); MIC [13, 31]: 1 mg/L (≈ 1.81 µM); MIC [14, 32]: 16 mg/L (≈ 28.9 µM); MIC [15, 33]: 8 mg/L (≈ 14.5 µM); MIC [16, 34]: 8 mg/L (≈ 14.5 µM); MIC [17, 35]: 8 mg/L (≈ 14.5 µM) |
